IC50 and inhibition data for 29 compounds are collected here from ChEMBL document CHEMBL4270481, “ALK5 kinase inhibitory activity and synthesis of 2,3,4-substituted 5,5-dimethyl-5,6-dihydro-4H-pyrrolo[1,2-b]pyrazoles” (Eur J Med Chem, 2017).

Test [1] has as its system K562. Put plainly: Cytotoxicity against human K562 cells assessed as decrease in cell proliferation after 72 hrs by calcein AM staining-based assay. As to conditions: K562, 72 h. Format: functional.
Test [2] deals with MCF7. Put plainly: Cytotoxicity against human MCF7 cells assessed as decrease in cell proliferation after 72 hrs by calcein AM staining-based assay. In kind it is functional. The note with it: MCF7, 72 h.
The target in test [3] is Cyclin-dependent kinase 2/cyclin E1 (Homo sapiens, UniProt P24941). Put plainly: Inhibition of human CDK2/cyclin E expressed in Sf9 insect cells using histone H1 as substrate in presence of [gamma-33P]ATP. In kind it is cell-based.
Test [4] concerns the target T1, TGF-beta receptor type-1 (Homo sapiens, UniProt P36897).
T1 sequence (P36897 whole entry): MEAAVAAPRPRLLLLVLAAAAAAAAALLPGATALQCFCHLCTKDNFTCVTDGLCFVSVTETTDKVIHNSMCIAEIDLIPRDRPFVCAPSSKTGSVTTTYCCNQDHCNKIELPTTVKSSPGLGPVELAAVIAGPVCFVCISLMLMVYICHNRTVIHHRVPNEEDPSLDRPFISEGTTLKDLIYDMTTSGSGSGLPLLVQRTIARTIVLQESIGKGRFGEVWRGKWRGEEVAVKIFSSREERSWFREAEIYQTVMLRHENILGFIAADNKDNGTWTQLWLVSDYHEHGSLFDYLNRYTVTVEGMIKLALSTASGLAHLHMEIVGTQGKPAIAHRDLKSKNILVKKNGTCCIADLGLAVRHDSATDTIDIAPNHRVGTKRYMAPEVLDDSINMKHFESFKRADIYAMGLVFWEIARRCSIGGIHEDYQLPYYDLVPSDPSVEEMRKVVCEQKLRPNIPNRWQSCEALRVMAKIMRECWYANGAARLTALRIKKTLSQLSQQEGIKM
Put plainly: Inhibition of human ALK5 expressed in Sf9 insect cells using casein as substrate in presence of [gamma-33P]ATP. Format: cell-based.

The target of test [5] is Tyrosine-protein kinase ABL1 (Mus musculus, UniProt P00520). Put plainly: biochemical. Format: cell-based, Sf9.
Test [6] deals with T2, TGF-beta receptor type-1 (Homo sapiens) (UniProt P36897).
T2 sequence (whole entry): T1 sequence (P36897 whole entry)
The note with it: HeLa, at 1 µM.
Description: Inhibition of ALK5 in serum starved human HeLa cells assessed as reduction in TGF-beta-induced SMAD2/3 nuclear transaction at 1 uM pre-incubated for 30 mins before TGF-beta stimulation for 30 mins by immunofluorescence analysis

Active and inactive are the calls of the source. No cut-off for these calls is given here.

Sequence of Tyrosine-protein kinase ABL1 (P00520 whole entry): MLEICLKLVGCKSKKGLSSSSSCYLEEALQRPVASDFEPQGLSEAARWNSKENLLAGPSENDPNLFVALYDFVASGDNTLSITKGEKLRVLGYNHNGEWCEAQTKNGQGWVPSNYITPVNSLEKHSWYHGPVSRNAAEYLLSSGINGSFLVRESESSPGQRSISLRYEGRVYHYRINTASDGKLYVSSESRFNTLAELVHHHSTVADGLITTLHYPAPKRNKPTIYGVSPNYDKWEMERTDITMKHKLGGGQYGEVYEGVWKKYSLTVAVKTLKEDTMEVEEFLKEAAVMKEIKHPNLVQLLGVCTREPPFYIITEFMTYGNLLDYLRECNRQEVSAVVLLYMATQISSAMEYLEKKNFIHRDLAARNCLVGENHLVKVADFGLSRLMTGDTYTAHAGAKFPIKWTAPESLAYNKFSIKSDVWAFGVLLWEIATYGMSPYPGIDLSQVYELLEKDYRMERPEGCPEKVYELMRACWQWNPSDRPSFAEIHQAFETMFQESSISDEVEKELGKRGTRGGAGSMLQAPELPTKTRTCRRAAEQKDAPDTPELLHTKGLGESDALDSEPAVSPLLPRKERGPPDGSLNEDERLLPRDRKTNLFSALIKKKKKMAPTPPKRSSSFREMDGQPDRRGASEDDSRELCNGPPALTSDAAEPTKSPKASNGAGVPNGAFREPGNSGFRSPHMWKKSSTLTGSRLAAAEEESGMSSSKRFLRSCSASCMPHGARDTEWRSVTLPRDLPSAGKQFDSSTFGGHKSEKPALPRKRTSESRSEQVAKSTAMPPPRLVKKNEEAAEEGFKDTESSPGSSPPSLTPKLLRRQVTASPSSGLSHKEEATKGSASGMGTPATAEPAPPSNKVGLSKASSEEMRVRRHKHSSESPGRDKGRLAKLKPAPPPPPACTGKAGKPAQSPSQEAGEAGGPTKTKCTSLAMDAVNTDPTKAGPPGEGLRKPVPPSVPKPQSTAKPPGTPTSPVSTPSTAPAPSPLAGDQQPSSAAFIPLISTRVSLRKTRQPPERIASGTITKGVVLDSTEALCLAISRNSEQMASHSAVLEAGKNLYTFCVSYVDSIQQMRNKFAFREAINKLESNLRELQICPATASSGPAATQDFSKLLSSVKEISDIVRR

The term IC50 denotes the concentration needed to halve the response being measured. As for `CC1(C)Cc2c(-c3ccncc3)c(-c3ccccn3)nn2C1`, the concentration for half-maximal inhibition (IC50) in test [1] is over 100 µM; in test [2] it was over 100 µM; in test [3], over 50 µM; in test [4] it was 1.94 µM; in test [5] it was over 50 µM.
As to `Cc1cccc(-c2nn3c(c2-c2ccncc2)C(C)C(C)(C)C3)c1C#N` (stereo not given), the IC50 was 92 µM in test [1]; 97 µM in test [2]; over 100 µM in test [3]; 0.162 µM in test [4]; 6.4 µM in test [5].
As to `CCc1cccc(-c2nn3c(c2-c2ccc(OC)cc2)C(C)C(C)(C)C3)n1` (stereo not given), the concentration for half-maximal inhibition (IC50) in test [1] was 64 µM; in test [2] it was 45 µM; in test [3], over 100 µM; in test [4] it was 0.805 µM; in test [5], over 100 µM.
`CCc1cccc(-c2nn3c(c2-c2ccncc2)C(C)C(C)(C)C3)n1` (stereo not given): the IC50 in test [1] was over 100 µM; in test [2], over 100 µM; in test [3] it was over 100 µM; in test [4] it was 0.183 µM; in test [5], 43 µM.
With `Cc1cccc(-c2nn3c(c2-c2ccc(O)cc2)C(C)C(C)(C)C3)c1C#N` (stereo not given), the IC50 was over 12 µM in test [1]; over 12 µM in test [2]; over 12 µM in test [3]; 0.341 µM in test [4]; over 12 µM in test [5].
For `CCc1cccc(-c2nn3c(c2-c2ccc(O)cc2)[C@H](C)C(C)(C)C3)n1`, the 50% inhibitory concentration (IC50) in test [1] was over 100 µM; in test [2] it was over 100 µM; in test [3], over 100 µM; in test [4], 0.137 µM; in test [5], over 100 µM.
For the compound `CCc1cccc(-c2nn3c(c2-c2ccc(O)cc2)C(C)C(C)(C)C3)n1` (stereo not given), the IC50 was over 100 µM in test [1]; 46 µM in test [2]; over 100 µM in test [3]; 0.098 µM in test [4]; over 100 µM in test [5].
On to `COCC1c2c(-c3ccncc3)c(-c3cccc(C)n3)nn2CC1(C)C` (stereo not given), for which the half-inhibitory concentration (IC50) in test [1] was over 100 µM; in test [2] it was over 100 µM; in test [3], over 100 µM; in test [4], 0.743 µM; in test [5], 25 µM.
`CCc1cccc(-c2nn3c(c2-c2ccnc(Nc4ccc(S(N)(=O)=O)cc4)c2)C(C)C(C)(C)C3)n1` (stereo not given): the half-maximal inhibitory concentration (IC50) in test [1] was 24 µM; in test [2], 28 µM; in test [3], 37 µM; in test [4], 0.229 µM; in test [5], 6.8 µM.
On the same counts, the results for `Cc1cccc(-c2nn3c(c2-c2ccnc(Cl)c2)C(C)C(C)(C)C3)n1` (stereo not given) are over 100 µM, over 100 µM, over 100 µM, 0.517 µM and over 100 µM.
With `Cc1cccc(-c2nn3c(c2-c2ccc(O)cc2)[C@@H](C)C(C)(C)C3)n1`, the 50% inhibitory concentration (IC50) is over 50 µM in test [1]; over 50 µM in test [2]; over 25 µM in test [3]; 0.197 µM in test [4]; over 100 µM in test [5].
In the case of `CC1(C)Cc2c(-c3ccncc3)c(-c3ccccc3C#N)nn2C1`, the half-inhibitory concentration (IC50) was over 100 µM in test [1]; over 100 µM in test [2]; over 100 µM in test [3]; 2.52 µM in test [4]; 20 µM in test [5].
Take `Cc1cccc(-c2nn3c(c2-c2ccnc(Cl)c2)CC(C)(C)C3)n1`: the IC50 was over 100 µM in test [1]; over 100 µM in test [2]; over 100 µM in test [3]; 1.23 µM in test [4]; over 100 µM in test [5].
As to `Cc1cccc(-c2nn3c(c2-c2ccncc2)C(C)C(C)(C)C3)n1` (stereo not given), the IC50 in test [1] was over 100 µM; in test [2], over 100 µM; in test [3], over 100 µM; in test [4] it was 0.181 µM; in test [5] it was 21 µM.
In the case of `Cc1cccc(-c2nn3c(c2-c2ccnc(Nc4ccc(S(N)(=O)=O)cc4)c2)CC(C)(C)C3)n1`, the IC50 was 52 µM in test [1]; 92 µM in test [2]; over 100 µM in test [3]; 0.147 µM in test [4]; 2.5 µM in test [5].
Take `Cc1cccc(-c2nn3c(c2-c2ccnc(Nc4ccc(S(N)(=O)=O)cc4)c2)C(C)C(C)(C)C3)n1` (stereo not given): the half-maximal inhibitory concentration (IC50) in test [1] was 31 µM; in test [2], 22 µM; in test [3], 11 µM; in test [4] it was 0.154 µM; in test [5] it was 0.55 µM.
On the same counts, the results for `CCOC(=O)c1ccc(-c2c(-c3cccc(C)n3)nn3c2C(C)C(C)(C)C3)cc1` (stereo not given) are 45 µM, 29 µM, over 100 µM, 2.01 µM and over 100 µM.
Take `CCc1cccc(-c2nn3c(c2-c2ccnc(Cl)c2)C(C)C(C)(C)C3)n1` (stereo not given): the concentration for half-maximal inhibition (IC50) in test [1] was 82 µM; in test [2] it was over 100 µM; in test [3] it was over 100 µM; in test [4], 2.74 µM; in test [5], over 100 µM.
As for `Cc1cccc(-c2nn3c(c2-c2ccc(O)cc2)CC(C)(C)C3)n1`, the IC50 was over 25 µM in test [1]; over 25 µM in test [2]; over 100 µM in test [3]; 0.229 µM in test [4]; 20 µM in test [5].
For `Cc1cccc(-c2nn3c(c2-c2ccncc2)C(CO)C(C)(C)C3)n1` (stereo not given), the half-inhibitory concentration (IC50) is over 100 µM in test [1]; over 100 µM in test [2]; over 100 µM in test [3]; 1.41 µM in test [4]; 93 µM in test [5].
For the compound `COc1ccc(-c2c(-c3cccc(C)n3)nn3c2C(C)C(C)(C)C3)cc1` (stereo not given), the 50% inhibitory concentration (IC50) in test [1] is 88 µM; in test [2], 66 µM; in test [3], over 100 µM; in test [4], 0.612 µM; in test [5] it was over 100 µM.
For `CC1(C)Cc2c(-c3ccc(O)cc3)c(-c3ccccn3)nn2C1`, the half-inhibitory concentration (IC50) is 74 µM in test [1]; over 100 µM in test [2]; over 100 µM in test [3]; 1.99 µM in test [4]; over 100 µM in test [5].
Turning to `Cc1cccc(-c2nn3c(c2-c2ccncc2)CC(C)(C)C3)n1`, the IC50 is over 100 µM in test [1]; over 100 µM in test [2]; over 100 µM in test [3]; 0.406 µM in test [4]; 26 µM in test [5].
Regarding `CC1c2c(-c3ccc(O)cc3)c(-c3ccccc3C#N)nn2CC1(C)C` (stereo not given), the half-inhibitory concentration (IC50) was over 12 µM in test [1]; over 12 µM in test [2]; over 12 µM in test [3]; 5.19 µM in test [4]; over 12 µM in test [5].
`Cc1cc(-c2c(-c3cccc(C)n3)nn3c2C(C)C(C)(C)C3)ccn1` (stereo not given): the IC50 in test [1] was over 100 µM; in test [2], over 100 µM; in test [3] it was over 100 µM; in test [4], 0.548 µM; in test [5], 25 µM.
Regarding `Cc1cccc(-c2n[nH]cc2-c2ccc3ncccc3n2)n1` [GW786460X], the 50% inhibitory concentration (IC50) in test [1] is over 100 µM; in test [2] it was over 100 µM; in test [3], over 100 µM; in test [5] it was 21 µM. The inhibition entry in test [6] is “Active”.
Consider `Cc1cccc(-c2nn3c(c2-c2ccc(O)cc2)[C@H](C)C(C)(C)C3)n1`, for which the IC50 is over 100 µM in test [1]; over 100 µM in test [2]; over 100 µM in test [3]; 0.097 µM in test [4]; over 100 µM in test [5].
With `CCc1cccc(-c2nn3c(c2-c2ccc(O)cc2)[C@@H](C)C(C)(C)C3)n1`, the half-inhibitory concentration (IC50) in test [1] is 77 µM; in test [2], 58 µM; in test [3] it was 53 µM; in test [4], 0.261 µM; in test [5], over 100 µM.
In the case of `CC1c2c(-c3ccncc3)c(-c3ccccc3C#N)nn2CC1(C)C` (stereo not given), the 50% inhibitory concentration (IC50) in test [1] was 77 µM; in test [2], over 100 µM; in test [3], over 100 µM; in test [4] it was 1.29 µM; in test [5], 11 µM.
